We go through five compounds from patent US20240239806A1, “COMPOUNDS, COMPOSITIONS AND METHODS OF TREATING DISORDERS” (Chengdu Anticancer Bioscience, Ltd., priority 2021, published 2024).

Common to all, as to assay type: cell-based
Experiment [1] concerns SW480. Briefly: MECP in cancer cell line. Particulars: Homo sapiens. How it is done:
(§1) Six lung cancer cell lines (NCI-H23, NCI-H460, NCI-H596, NCI-H2170, Calu-6 and A549), two colon cancer cell lines (HCT116 and SW460), one breast cancer cell line MDA-MB-231, one gastric cancer cell line NCI-N87, one prostate cancer cell line DU145, one cervical cancer cell line Hela, and one glioblastoma cell line T98G were obtained from ATCC. The T2 HCC cell line was derived from a mouse liver cancer model initiated by a transgene of MYC. All cell lines were cultured in DMEM (Gibco, Cleveland, TN, USA) supplemented with 5% fetal bovine serum (Gibco), penicillin (100 U/mL)—streptomycin (100 μg/mL) (Gibco, Cat. No. 15140-122), 2 mM L-glutamine (Gibco, 200 mM solution, Cat. No. 25030081), and 1 mM sodium pyruvate (Gibco, 100 mM solution, Cat. No. 11360070) at 37° C. in a humidified incubator that was maintained at 5% CO2.
(§2) We have previously developed a mechanism-informed phenotypic screening assay to identify novel antimitotic agents. Equipped with a prior understanding of the versatile functions of the chromosomal passenger protein (CPP) complex in orchestrating karyokinesis and cytokinesis, the screening assay is to score for phenotypes typically seen when the CPP complex is disabled. Specifically, the parameters for a positive hit are a temporary elevation of mitotic index (MI) at 24 hours of drug treatment and an accumulation of polyploid cells at 48 hours of drug treatment, indicative of mitotic arrest and cytokinetic failure respectively. These parameters exclude compounds that elicit only a prolonged arrest of cells in mitosis, a phenotype typically provoked by spindle toxins. The screening procedure is briefly summarized here. RPEMYC^H2B-GFP cells engineered to express a Histone 2B-EGFP fusion protein were passaged as batches of 96-well plates, 18-24 hours before exposure to the chemical compounds of the present disclosure at concentrations from 1 nM to 30 μM. At 24, 48 or 72 hours after initiation of treatment, cells were analyzed for either an arrest in mitosis or a change in DNA content by GE IN-Cell Analyzer 2000. As set forth in Table 2 below, a value of greater than or equal to 1 nM and less than or equal to 1.0 μM is marked “A”; a value greater than 1.00 μM and less than or equal to 10.0 μM is marked “B”; a value greater than 10.0 μM and less than or equal to 30.0 μM is marked “C”; and a value greater than 30.0 μM is marked “D.”

For experiment [2], the system named is MDA-MB-231. The experiment is described as follows: MECP in cancer cell line. Particulars: Homo sapiens. How it is done: as §1, §2
The test system of experiment [3] is HCT116. Briefly: MECP in cancer cell line. Particulars: Homo sapiens, HCT-116. How it is done: as §1, §2
Experiment [4] concerns T2 HCC. Briefly: MECP in cancer cell line. The following applies: Mus musculus. How it is done:
as §1, §2

The subject of experiment [5] is A549. The experiment is described as follows: MECP in cancer cell line. The following applies: Homo sapiens. The method, then:
as §1, §2

Experiment [6] concerns Hela. The experiment is described as follows: MECP in cancer cell line. The following applies: Homo sapiens. How it is done:
as §1, §2

The test system of experiment [7] is NCI-N87. Briefly: MTT assay of cellular proliferation. The following applies: Homo sapiens, 50% inhibition of cellular proliferation. How it is done:
as §1
(§3) The MTT assay measures cellular metabolic activity as a proxy for cell viability and involves the conversion of the water-soluble yellow dye MTT [3-(4,5-dimethylthiazol-2-yl)-2,5-diphenyltetrazolium bromide] into an insoluble purple formazan by the action of mitochondrial reductase. Formazan is then solubilized and its concentration is determined by measuring the optical density (OD) value at a wavelength of 570 nm. The value is in proportional to the number of live cells with excellent linearity up to ˜10^6 cells per well. The MTT assay was used to determine the EC50 value, the concentration of a compound that leads to 50% inhibition of cellular proliferation. Briefly, cells were split when growing to the mid-Log phase. Cells in 100 μL of culture medium were seeded into each well of 96-well microplates and cultivated for 15-24 hours to reach a confluence of 20-30% and were then exposed to drugs at concentrations ranging from 1 nM to 30 μM. At the endpoint, 20 μL of a MTT stock solution in DMSO (5 mg/mL) was added to each well that contains 100 μL of DMEM. The microplates were left in the cell culture incubator for 3-4 h before subjected to solubilization and determination of formazan at A570 in a microplate reader (BioTek ELX808iu). […] Therefore, these compounds might hold a broad utility in the treatment of a large variety of human malignancies.

The subject of experiment [8] is SW480. Briefly: MTT assay of cellular proliferation. The following applies: Homo sapiens, 50% inhibition of cellular proliferation. The method, then:
as §1, §3

The subject of experiment [9] is NCI-H23. Briefly: MTT assay of cellular proliferation. The following applies: Homo sapiens, 50% inhibition of cellular proliferation. The method, then:
as §1, §3
(In general: Formazan colour is commonly taken as a measure of viable cells.)

Experiment [10] relates to MDA-MB-231. The experiment is described as follows: MTT assay of cellular proliferation. Particulars: Homo sapiens; MDA-MB-231, MTT, 50% inhibition of cellular proliferation. The method, then: as §1, §3
Experiment [11] has as its system HCT116. Briefly: MTT assay of cellular proliferation. The following applies: Homo sapiens, HCT-116, 50% inhibition of cellular proliferation. How it is done: as §1, §3
The test system of experiment [12] is T2 HCC. Briefly: MTT assay of cellular proliferation. The following applies: Mus musculus, 50% inhibition of cellular proliferation. How it is done:
as §1, §3

In experiment [13] the test system is A549. Briefly: MTT assay of cellular proliferation. Particulars: Homo sapiens, 50% inhibition of cellular proliferation. The method, then:
as §1, §3

For experiment [14], the system named is Hela. The experiment is described as follows: MTT assay of cellular proliferation. The following applies: Homo sapiens, 50% inhibition of cellular proliferation. The method, then: as §1, §3
The test system of experiment [15] is RPEMYC^H2B-GFP cells. Briefly: Phenotypic screening assay (mitotic arrest, polyploidy). The following applies: 1 nM to 30 μM; for IC50: read-out: Proliferative arrest (>50%). The method, boiled down:
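RPE cells expressing MYC and H2B-EGFP treated with compound at 1 nM–30 μM; mitotic index scored at 24 h and polyploidy (DNA content) at 48 h by automated imaging, with reads at 24, 48 or 72 h. Hits show transient mitotic arrest followed by polyploid accumulation.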

The subject of experiment [16] is NCI-N87. Briefly: MECP in cancer cell line. The following applies: Homo sapiens. The method, then: as §1, with “CO2. […]” for “CO2.”
Experiment [17] concerns NCI-H23. The experiment is described as follows: MECP in cancer cell line. Particulars: Homo sapiens. The method, then: as §1, with “CO2. […]” for “CO2.”
Where [18] appears, read: read-out: Min. Effective conc. for Polyploidy (≥5%).

Like-named read-outs stand apart in the source and are kept apart here.

By EC50 is commonly meant the concentration at which the effect is half-maximal. A lower EC50 goes with an effect from little substance. As to `COc1cc(NC(C)=O)cc(Oc2ccnc3ccc(OC)cc23)c1` [Compound 18, N-(3-methoxy-5-((6-methoxyquinolin-4-yl)oxy)phenyl)acetamide], the minimal effective concentration in [1], in [2], in experiment [3], in experiment [4], in [5] and in experiment [6] was 0.001 to 1 µM each time. The minimal effective concentration in experiment [15] (setting [18]), in experiment [15] (read-out: Mitotic Arrest (≥5%)), in experiment [16] and in experiment [17] was 0.001 to 1 µM each time. The EC50 in experiment [7], in experiment [8], in experiment [9], in [10], in experiment [11] and in experiment [12] was 1 to 1000 nM throughout. The concentration for a half-maximal effect (EC50) in experiment [13] and in experiment [14] was 1 to 1000 nM throughout. Further, in [15], the IC50 was 1 to 1000 nM.
As for `COc1cc(Oc2ccnc3ccc(F)cc23)cc(-n2cccn2)c1` [Compound 19, 6-fluoro-4-(3-methoxy-5-(1H-pyrazol-1-yl)phenoxy)quinoline], the minimal effective concentration in experiment [1], in experiment [2], in experiment [3], in experiment [4], in experiment [5] and in experiment [6] was 0.001 to 1 µM throughout. In addition, the minimal effective concentration in experiment [15] (setting [18]), in experiment [15] (read-out: Mitotic Arrest (≥5%)), in experiment [16] and in experiment [17] was 0.001 to 1 µM throughout. Moreover, the EC50 in experiment [7] fell in the range of 1 to 1000 nM; in experiment [8], 1000 to 10000 nM; in [9] it was 1 to 1000 nM; in experiment [10] it was 1 to 1000 nM; in experiment [11], 1 to 1000 nM; in experiment [12], 1 to 1000 nM. Also, the EC50 in experiment [13] and in experiment [14] was 1 to 1000 nM each time. Further, the IC50 in experiment [15] lay in the range of 1 to 1000 nM.
On to `COc1cc(NC(C)=O)cc(Oc2ccnc3ccc(F)cc23)c1` [Compound 20, N-(3-((6-fluoroquinolin-4-yl)oxy)-5-methoxyphenyl)acetamide], for which the minimal effective concentration in experiment [1], in experiment [2], in experiment [3], in experiment [4], in [5] and in [6] was 0.001 to 1 µM in each case. In addition, the minimal effective concentration in [15] (setting [18]), in [15] (read-out: Mitotic Arrest (≥5%)), in [16] and in experiment [17] was 0.001 to 1 µM in each case. Further, the EC50 in experiment [7], in experiment [8], in experiment [9], in experiment [10], in [11] and in experiment [12] was 1 to 1000 nM each time. Besides, the EC50 in [13] and in experiment [14] was 1 to 1000 nM throughout. In [15], the IC50 is 1 to 1000 nM.
As to `COc1cc(NC(C)=O)cc(Oc2ccnc3ccc(Br)cc23)c1` [Compound 22, N-(3-((6-bromoquinolin-4-yl)oxy)-5-methoxyphenyl)acetamide], the minimal effective concentration in experiment [1], in experiment [2], in [3], in experiment [4], in experiment [5] and in experiment [6] was 0.001 to 1 µM in each case. Moreover, the minimal effective concentration in experiment [15] (setting [18]), in experiment [15] (read-out: Mitotic Arrest (≥5%)), in experiment [16] and in experiment [17] was 0.001 to 1 µM in each case. Moreover, the EC50 in experiment [7], in [8], in [9], in experiment [10], in [11] and in experiment [12] was 1 to 1000 nM throughout. The 50% effective concentration (EC50) in [13] and in experiment [14] was 1 to 1000 nM throughout. In addition, the IC50 in experiment [15] lay within 1 to 1000 nM.
With `COc1cc(NC(C)=O)cc(Oc2ccnc3cc(OC)c(OC)cc23)c1` [Compound 27, N-(3-((6,7-dimethoxyquinolin-4-yl)oxy)-5-methoxyphenyl)acetamide], the minimal effective concentration in experiment [1], in [2], in experiment [3], in experiment [4], in experiment [5] and in experiment [6] was 0.001 to 1 µM each time. The minimal effective concentration in experiment [15] (setting [18]), in experiment [15] (read-out: Mitotic Arrest (≥5%)), in experiment [16] and in experiment [17] was 0.001 to 1 µM each time. The EC50 in experiment [7], in experiment [8], in experiment [9], in [10], in experiment [11] and in [12] was 1 to 1000 nM in each case. Also, the EC50 in experiment [13] and in [14] was 1 to 1000 nM throughout. Moreover, the “Min. Effective conc. for Polyploidy (≥5%)” value in experiment [15] was “B (a value greater than 1.00 μM and less than or equal to 10.0 μM)”. Besides, in experiment [15], the “Mitotic Arrest (≥5%)” value is “B (a value greater than 1.00 μM and less than or equal to 10.0 μM)”. Besides, in experiment [15], the “Proliferative arrest (>50%)” value is “B (a value greater than 1.00 μM and less than or equal to 10.0 μM)”. In addition, the “Along with Cell Death” value in experiment [15] (listed as 23) is “B (a value greater than 1.00 μM and less than or equal to 10.0 μM)”. Besides, the IC50 in experiment [15] lay in the range of 1 to 1000 nM.
